ChEMBL document CHEMBL2094269, “WEHI/Eskitis Trypanosoma b. brucei screening data”
“And” between values parts separate entries of the source, which are not always exact repeats. Equal entries are not always repeated.

Columns and labels:
[1] = DNDI: Cytotoxicity against human MRC-5 lung fibroblast cells.; settings: IC50
[2] = tested on: Trypanosoma brucei brucei; assay: microbe, parasite or virus in culture; assay type: functional, organism-based, STIB 795
Description: DNDI: Inhibition of Human African Trypanosomiasis (HAT), STIB 795, in vitro

Structure (SMILES)	IC50 [1]	IC50 ([2]; Trypanosoma brucei, STIB 795)	IC50 [2]
CC(=O)NC(c1cccs1)c1ccc2cccnc2c1O (configuration not stated)	0.984 µM	0.924 µM	
NCCc1c(-c2ccccc2)n(-c2ccccc2)c2ccccc12	> 20.8 µM	1.49 µM	
Cc1n[nH]c(C)c1/N=N/N1CCOCC1	3.61 µM	0.7 µM	
O=C1CC(n2nnnc2-c2ccccc2)C2COC1O2 (configuration not stated)	> 20.8 µM	2.18 µM	
O=C(N/N=C/c1cc2c3c(c1O)CCCN3CCC2)c1ccncc1	> 0.42 µM	0.288 µM	
CCc1cc2c(cc1C(C)N)C(C)(C)CCC2(C)C (configuration not stated)	> 20.8 µM	5 µM	
Cc1ccccc1OCCn1c(=N)n(Cc2ccccc2F)c2ccccc21	> 20.8 µM	4.95 µM	
CC[n+]1c(/C=C/c2ccc(N(C)C)cc2)sc2cc(NC(C)=O)ccc21	> 20.8 µM	0.049 µM	
Cc1cc(C)c(C(=O)CC(N2CCCCC2)C(F)(F)F)c(=O)[nH]1 (configuration not stated)	> 20.8 µM	2.27 µM	
O=S1(=O)Nc2c(ccc3cccnc23)-c2ccccc21	> 20.8 µM	2.87 µM	
CCCn1c(=N)n(CC(O)COc2ccc(Cl)cc2Cl)c2ccccc21 (configuration not stated)	8.79 µM	1.94 µM	
Cc1nn2c(=O)cc(-c3ccc(F)cc3)[nH]c2c1-c1ccccc1	2.42 µM	0.913 µM	
CCCC(=O)Nc1ccc(Cl)c(-c2nc3ncccc3o2)c1	> 41.7 µM	0.851 µM	
N=C(NOC(=O)CC1CCCCC1)c1cccnc1	> 41.7 µM	5.36 µM	
Cc1ccc2[nH]c(/C(C#N)=C/c3ccc(O)c(O)c3)nc2c1	> 20.8 µM	1.51 µM	
Cn1c(=N)n(CC(=O)c2cc(C(C)(C)C)c(O)c(C(C)(C)C)c2)c2ccccc21	> 20.8 µM	4.57 µM	2.62 µM
Cc1cc(C)nc(NC(c2ccco2)c2ccc3cccnc3c2O)n1 (configuration not stated)	> 41.7 µM	5.39 µM	
O=C(CC(SCc1ccco1)c1ccc(Cl)cc1)c1ccco1 (configuration not stated)	> 41.7 µM		5.16 µM and > 10.4 µM
CCOc1ccc(OCc2ccc(C(=O)N3CCCC(C)C3)cc2)cc1 (configuration not stated)	> 41.7 µM	2.56 µM	
CC(C)(C)c1cc(/C=N/Nc2nc3ccccc3[nH]2)cc(C(C)(C)C)c1O	> 20.8 µM	0.485 µM	
Oc1c(C(c2ccc(C(F)(F)F)cc2)N2CCOCC2)ccc2cccnc12 (configuration not stated)	> 20.8 µM	5.43 µM	
COc1ccc(C(NC(=O)CC(C)C)c2ccc3cccnc3c2O)cc1OC (configuration not stated)	0.685 µM	0.6 µM	
CCOc1c(Cl)cc(CNCCc2c[nH]c3ccccc23)cc1OC	> 41.7 µM	5.09 µM	
C=CCNCCCCOc1ccc(Br)cc1Cl	> 41.7 µM	4.95 µM	

Structure (SMILES)	IC50 [1]	IC50 ([2]; Trypanosoma brucei, STIB 795)	IC50 [2]
Cc1c(-c2cccc3c2OC(C)(C)C3)ccc2nc(N)nc(N)c12	> 4.17 µM	≤ 1.95 µM	
O=C1CC(Sc2nc(-c3ccco3)cc(C(F)(F)F)n2)C2COC1O2 (configuration not stated)	> 20.8 µM		12 µM and 5.11 µM
C(=C\c1ccc(OC2CN3CCC2CC3)cc1)/c1ccccc1 (configuration not stated)	> 41.7 µM	5.31 µM	
CC[n+]1ccccc1/C=C1\C=Cc2cc(C)ccc2N1C	> 20.8 µM	0.911 µM	
CC(C)N1C/C(=C/c2ccccn2)C(=O)/C(=C/c2ccccn2)C1	5.78 µM	0.236 µM	
CC(Nc1nc(N2CCNCC2)nc2ccccc12)c1ccccc1 (configuration not stated)	> 4.17 µM	1.47 µM	
COc1ccc2c(c1)S/C(=C/C(=O)c1ccncc1)N2C	> 41.7 µM	5.01 µM	
CN(C)CCn1c2ccccc2c2cnc(N)c(C#N)c21	> 4.17 µM	3.62 µM	
O=C(O/N=C(/NCc1ccccc1)c1ccc(Cl)cc1)c1cccs1	> 41.7 µM	0.47 µM	
COc1cc(OC)c2nc(C)c3c(c2c1)CNC3	7.02 µM	2.5 µM	
Clc1ccc(C[n+]2cc(-c3ccccc3)n3c2CCC3)c(Cl)c1	> 41.7 µM	5.23 µM	
COc1cccc(C2=NC(c3cccnc3)NC(c3ccccc3O)C2)c1 (configuration not stated)	> 20.8 µM	1.5 µM	
CN1C=C/C(=C\C=C2/C=Nc3ccccc32)c2ccccc21	> 4.17 µM	0.311 µM	
NC1CCCc2c1[nH]c1ccc(Cl)cc21 (configuration not stated)	> 20.8 µM		0.823 µM and 2.29 µM
c1ccc(Cn2s/c(=N\c3ccccc3)nc2-c2ccccc2)cc1	> 20.8 µM	1.38 µM	
COc1ccc(C(=O)O/N=C(\N)c2ccccn2)c(OC)c1	> 20.8 µM	4.49 µM	
O=C(NC(=S)NNC(=S)N/N=C/c1ccccc1)c1ccccc1	> 20.8 µM	4.16 µM	
CC1CCN(C(c2cc(C(C)(C)C)c(O)c(C(C)(C)C)c2)c2ccccn2)CC1 (configuration not stated)	> 41.7 µM	5.7 µM	
COc1cc(-n2nnn(C3CC(=O)C4OCC3O4)c2=S)c(OC)cc1Cl (configuration not stated)	> 20.8 µM		> 10.4 µM and 4.74 µM
O=C(N/N=C/c1ccc(Cl)cc1Cl)c1ccc(O)c(O)c1	> 20.8 µM	1.54 µM	
CN(C)C(=S)N/N=C1\Cc2ccccc2C1=O	> 20.8 µM	0.989 µM	
C/C(=C\c1ccccc1)c1nc2c(=O)n(C)c(=O)nc-2n(C)n1	> 20.8 µM	5.62 µM	
COc1cc(C(=O)Nc2nc(-c3ccccn3)cs2)cc(OC)c1OC	> 41.7 µM	4.6 µM	
N#Cc1c(N)nc2[nH]nc(N)c2c1-c1ccccc1	> 20.8 µM	3.04 µM	

Structure (SMILES)	IC50 [1]	IC50 ([2]; Trypanosoma brucei, STIB 795)	IC50 [2]
O=C(/C=C/c1ccccc1)ONC(=O)c1ccc(Cl)cc1	> 20.8 µM	4.45 µM	
CC1CS/C(=N/c2ccc(Br)cc2)N1 (configuration not stated)	> 41.7 µM	6.65 µM	
COc1ccc(/C=N/NC(=O)C(OC)c2ccccc2)c(OC)c1OC (configuration not stated)	> 4.17 µM	2.27 µM	
Cc1oc2c(O)c(O)ccc2c(=O)c1Oc1ccccc1F	> 41.7 µM	0.133 µM	
Cc1cccc(N2CCN(CCN)CC2)c1C	> 41.7 µM	5.21 µM	
CCN(CC)c1ccc(/C=N\NC(=O)Cc2cccn2C)c(O)c1	> 4.17 µM	3.62 µM	
N/C(=N\OC(=O)c1cccs1)c1ccccc1Cl	> 20.8 µM	0.766 µM	
CC(C)NCC(O)CC(O)(c1ccccc1)c1ccc(C(C)(C)C)cc1 (configuration not stated)	> 20.8 µM	5.12 µM	
CCN1C=CC(=Cc2ccc3cc(C)ccc3[n+]2C)C=C1	> 20.8 µM	0.538 µM	
Oc1c(C(Nc2nccs2)c2ccccn2)ccc2cccnc12 (configuration not stated)	4.16 µM	0.973 µM	
CCCn1c(=O)c2c(nc3n2CCN3Cc2ccco2)n(C)c1=O	> 41.7 µM	4.91 µM	
CCCC(=O)NC(c1cccc(F)c1)c1ccc2cccnc2c1O (configuration not stated)	> 20.8 µM	7.07 µM	
O=C(NC(c1ccco1)c1cc(Cl)c2cccnc2c1O)c1cccnc1 (configuration not stated)	> 20.8 µM	0.053 µM	
Cc1ccccc1Cn1c(=N)n(CC(O)c2ccco2)c2ccccc21 (configuration not stated)	> 20.8 µM	5.25 µM	
CCn1ccnc1-c1cccc(-c2ccccn2)n1	> 1.04 µM	0.425 µM	
COc1ccc(C(=N)NOC(=O)c2ccco2)cc1	> 20.8 µM	3.69 µM	
CCS(=O)(=O)N1CCCc2ccc(NS(=O)(=O)c3cccs3)cc21	> 41.7 µM	0.796 µM	
CCOC(=O)c1ccc(CN2C(=O)C(=O)c3cc(OC(F)(F)F)ccc32)o1	> 20.8 µM	4.03 µM	
COc1ccc(N2C(=O)CN(Cc3sccc3C)C2=S)cc1Cl	> 41.7 µM	4.94 µM	
COc1ccc(C(C)(C)C#Cc2c(C)nc(N)nc2N)cc1	> 4.17 µM	≤ 3.48 µM	
O=C(CC1(O)C(=O)Nc2ccc(I)cc21)c1cccs1 (configuration not stated)	> 41.7 µM	0.931 µM	
CCN1CCCC(Nc2ccnc3cc4ccccc4cc23)C1 (configuration not stated)	4.95 µM	0.275 µM	
COC(=O)c1cn(NC(=O)c2ccccn2)c(=O)c2ccccc12	> 10.4 µM	0.63 µM	
O=C(COc1ccc(Cl)cc1Cl)NO	> 20.8 µM	0.921 µM	

Structure (SMILES)	IC50 [1]	IC50 ([2]; Trypanosoma brucei, STIB 795)	IC50 [2]
NCCNCCC=C(c1ccc(F)cc1)c1ccc(F)cc1	> 20.8 µM	0.265 µM	
CCc1ccc(/C=N\n2cnnc2)cc1	> 41.7 µM	0.647 µM	
CCOc1cc(CNCCc2cccc(Cl)c2)ccc1OC	> 20.8 µM	4.84 µM	
c1ccc(Nc2nc(-c3ccccc3)c3ccccn23)cc1	> 41.7 µM	5.38 µM	
CC(C)(C)c1cc(C(c2ccccn2)N2CCOCC2)cc(C(C)(C)C)c1O (configuration not stated)	> 41.7 µM	10.6 µM	
CC(C)(C)C/C(=N\NC(=N)N)c1ccccc1	> 20.8 µM	5.39 µM	
Cc1ccc(NCC(=O)N/N=C/c2c(C)cc(O)cc2O)cc1	> 20.8 µM	5.37 µM	
COC(=O)c1ccccc1OCCCON1C(N)=NC(N)=NC1(C)C	> 0.42 µM	0.351 µM	
Cc1cc(C)c2c(N)c3cccc(C)c3nc2n1	0.9 µM	0.35 µM	
CNC1=C(N(C(C)=O)c2ccc(Br)cc2)C(=O)c2ccccc2C1=O	4.88 µM	0.515 µM	
O=c1cc(OC2=CS(=O)(=O)c3ccccc32)c2ccccc2o1	5.99 µM	3.59 µM	
CC(=O)NC(=S)NNC(=O)c1ccccc1OCc1ccccc1	> 20.8 µM	2.88 µM	
CC(C)(C)c1ccc(Cn2c(=N)n(CCO)c3ccccc32)cc1	> 41.7 µM	4.96 µM	
CCOC(=O)C/C(C)=N/Nc1ccc(-n2nc(C)c(C)c2C)nn1	> 10.4 µM	2.16 µM	
C=CC[n+]1ccc(/C=C/c2ccccc2O)c2ccccc21	> 41.7 µM	5.28 µM	
CCOC(=O)CNC(=O)C(Cc1ccccc1)NS(=O)(=O)c1cccs1 (configuration not stated)	> 41.7 µM	5.51 µM	
CC1=NN(C(=O)c2ccccc2O)C(C)(O)C1 (configuration not stated)	> 1.04 µM	0.66 µM	
C=CCn1c(-c2cccs2)nn(C2CC(=O)C3OCC2O3)c1=S (configuration not stated)	> 20.8 µM	4.75 µM	4.4 µM
CCOc1ccc(C2=CC(C(C(C)=O)C(C)=O)c3ccccc3O2)cc1 (configuration not stated)	> 41.7 µM	4.42 µM	
O=C1/C(=C\c2cccnc2)CCc2ccccc21	> 20.8 µM	5.02 µM	
CC(C)Cc1nc(NCCC2CCCN2C)c2cnn(-c3ccccc3)c2n1 (configuration not stated)	> 20.8 µM	2.66 µM	
O=C(CNc1ccc(Cl)cc1)N/N=C/c1cccnc1	> 4.17 µM	1.75 µM	
CCn1c(SCC(=O)N/N=C(\C)c2ccc(O)c(OC)c2)nc2ccccc21	> 41.7 µM	5.06 µM	
